Laboratory results: patent US4179519A, “Method and composition for reducing serum lipid levels using p-chlorophenyl p-chlorophenoxyisobutyrate” (priority 1978, dated 1979)

Columns and labels:
[1] = acute oral toxicity in rats, observed during 14 days; type: in vivo, Wistar EOPS rats; settings: in vivo, rat, 2000 mg/kg
Protocol: (§1) The acute toxicity of the p-chlorophenyl ester of clofibric acid was determined using two species of animals (Swiss EOPS mice and Wistar EOPS rats) by oral administration, the product being administered in a gum preparation. The animals were observed during 14 days.

[2] = system: serum and liver lipid levels; assay: hypolipidemic activity in rats on regimen rich in lipids, second set of experiments (Table II); type: in vivo, male Wistar EOPS rats
Protocol: (§2) The hypolipidemic activity was determined in rats subjected to a regimen rich in lipids over the course of 2 sets of experiments.
2. Male Wistar EOPS rats weighing in the neighborhood of 140 g receive a regimen rich in lipids during 21 days. Beginning with the eleventh day, the animals receive either a gum preparation containing the product to be tested or a preparation of 6% gum arabic alone, for 6 days out of 7. After the last feeding, and a subsequent 24 hour fast, the animals are sacrificed. A group of animals submitted to a normal regimen is used as a control. The percentage reductions of lipid levels are calculated using the following equation: [formula]

[3] = acute oral toxicity in mice, observed during 14 days; type: in vivo, Swiss EOPS mice; settings: mouse, in vivo, po, 2000 mg/kg
Protocol: as §1

Swiss EOPS mice = assay: as above; type: in vivo; settings: general statement
Protocol: as §1

Wistar EOPS rats = assay: acute oral toxicity in rats, observed during 14 days; type: in vivo; settings: rat, 2000 mg/kg
Protocol: as §1

[4] = system: serum and liver lipid levels; assay: hypolipidemic activity in rats on regimen rich in lipids, first set of experiments (Table I); type: in vivo, conventional male Wistar rats
Protocol: as §2
1. Conventional male Wistar rats weighing 130-150 g were maintained on a regimen rich in lipids for 21 days. At the same time, beginning with the fifteenth day of the regimen, they received a daily dose of either a gum preparation containing the product to be tested or a preparation of 6% gum arabic alone. After a fast of 24 hours, the animals were sacrificed, 22 days after the start of the regimen.

[5] = subchronic toxicity study, blood levels after one month oral administration (Table III); type: in vivo, male Wistar EOPS rats; set-up: bilirubin: unit not given here
Protocol: A subchronic toxicity study of the p-chlorophenyl ester of clofibric acid was carried out using the following protocol. The product was administered six days a week during the course of a month, by oral administration in a gum preparation, to male Wistar EOPS rats having an average initial weight of 200 g. After the last feeding, the animals were fasted. A blood sample is taken from the abdominal aorta under anesthesia, then the animals are sacrificed. […] The notation NS or S signifies whether the change induced by the product to be tested was statistically nonsignificant or significant.

[6] = 125 mg/kg/day, regimen rich in lipids
[7] = 200 mg/kg/day, regimen rich in lipids
[8] = 75 mg/kg/day, regimen rich in lipids
[9] = second dose group, dose not given

**Q.** With CC(C)(Oc1ccc(Cl)cc1)C(=O)O [clofibric acid, p-chlorophenoxyisobutyric acid, reference compound] as the compound, how does the mortality at 336 h [1] read?
**A.** The mortality at 336 h was 40%.

**Q.** And the “Wt. of liver / Wt of rat” value [2, 6]?
**A.** Its value is 6.99 ± 0.75.

**Q.** And the liver cholesterol level [2, 6]?
**A.** Its liver cholesterol level is 127.0 mg/g of liver.

**Q.** And the “liver total lipids level” value [2, 6]?
**A.** Its value is 382.7 mg/g of liver.

**Q.** What about the “liver triglycerides % reduction” value [2, 6] of the same compound?
**A.** Its value is 65%.

**Q.** And the liver triglycerides level [2, 6]?
**A.** Its liver triglycerides level is 20.33 mg/g of liver.

**Q.** And the “serum cholesterol % reduction” value [2, 6]?
**A.** Its value is 54%.

**Q.** What about the serum cholesterol concentration [2, 6] of the same compound?
**A.** Its serum cholesterol concentration is 2.31 g/L.

**Q.** What about the “serum total lipids % reduction” value [2, 6] of the same compound?
**A.** The value was 46%.

**Q.** And the “serum total lipids concentration” value [2, 6]?
**A.** The value was 4.97 ± 1.41 g/L.

**Q.** What about the serum triglycerides concentration [2, 6] of the same compound?
**A.** The serum triglycerides concentration was 0.23 ± 0.04 g/L.

**Q.** Which results are given for CC(C)(Oc1ccc(Cl)cc1)C(=O)Oc1ccc(Cl)cc1 [p-chlorophenyl ester of clofibric acid, p-chlorophenyl 2-(p-chlorophenoxy)-2-methylpropionate]?
**A.** mortality at 336 h [3]: 10%; toxicity (Swiss EOPS mice): very low toxicity; mortality (Wistar EOPS rats): did not result in any mortality; significance of reductions in blood and liver levels ([4]; 200 mg/kg/day, Table I): significant; liver total lipids % reduction [4, 7]: 56%; liver total lipids level [4, 7]: 60.82 ± 26.98 mg/g of liver; serum cholesterol % reduction [4, 7]: 69%; serum cholesterol concentration [4, 7]: 1.33 ± 0.33 g/L; serum total lipids % reduction [4, 7]: 81%; serum total lipids concentration [4, 7]: 3.87 ± 0.65 g/L; hypolipidemic activity compared with clofibric acid and nicotinic acid ([4]; general statement, total serum lipid and serum cholesterol levels): significantly superior to that of both clofibric acid and nicotinic acid; Wt. of liver / Wt of rat [2, 8]: 6.08 ± 0.31; liver cholesterol level [2, 8]: 123.0 mg/g of liver; liver total lipids level [2, 8]: 323.9 mg/g of liver; liver triglycerides % reduction [2, 8]: 48%; liver triglycerides level [2, 8]: 23.37 mg/g of liver; serum cholesterol % reduction [2, 8]: 32%; serum cholesterol concentration [2, 8]: 3.06 g/L; serum total lipids % reduction [2, 8]: 34%; serum total lipids concentration [2, 8]: 5.56 ± 2.83 g/L; serum triglycerides concentration [2, 8]: 0.39 ± 0.06 g/L; Wt. of liver / Wt of rat [2, 6]: 6.36 ± 0.31; liver cholesterol level [2, 6]: 136.5 mg/g of liver; liver total lipids level [2, 6]: 361.9 mg/g of liver; liver triglycerides % reduction [2, 6]: 62%; liver triglycerides level [2, 6]: 20.84 mg/g of liver; serum cholesterol % reduction [2, 6]: 69%; serum cholesterol concentration [2, 6]: 1.79 g/L; serum total lipids % reduction [2, 6]: 74%; serum total lipids concentration [2, 6]: 3.55 ± 0.77 g/L; serum triglycerides concentration [2, 6]: 0.35 ± 0.06 g/L; Wt. of liver / Wt of rat [2, 7]: 6.70 ± 0.50; liver cholesterol level [2, 7]: 135.2 mg/g of liver; liver total lipids level [2, 7]: 382.0 mg/g of liver; liver triglycerides % reduction [2, 7]: 89%; liver triglycerides level [2, 7]: 16.20 mg/g of liver; serum cholesterol % reduction [2, 7]: 67%; serum cholesterol concentration [2, 7]: 1.84 g/L; serum total lipids % reduction [2, 7]: 69%; serum total lipids concentration [2, 7]: 3.81 ± 0.97 g/L; serum triglycerides concentration [2, 7]: 0.22 ± 0.06 g/L; reduction of serum lipid and cholesterol levels compared with the acid ([2]; at equal dosage levels, vs clofibric acid): reduces serum lipid and cholesterol levels to a greater degree than the acid; increase in liver weight compared with the acid ([2]; at equivalent dosage levels, vs clofibric acid): smaller than when the acid is used, and this difference is statistically significant; weight of the animals' livers ([2]; regimen rich in lipids): increases; alkaline phosphatase ([5]; 100 mg/kg/day): 25.0 ± 4.9 mU/ml; bilirubin ([5]; 100 mg/kg/day): 3.68 ± 0.73; cholesterol ([5]; 100 mg/kg/day): 0.47 ± 0.04 g/L; glycemia ([5]; 100 mg/kg/day): 1.58 ± 0.15 g/L; total lipids ([5]; 100 mg/kg/day): 2.92 ± 0.54 g/L; triglycerides ([5]; 100 mg/kg/day): 0.83 ± 0.27 g/L; urea ([5]; 100 mg/kg/day): 0.42 ± 0.07 g/L; alkaline phosphatase ([5]; 500 mg/kg/day): 38.4 ± 9.9 mU/ml; bilirubin ([5]; 500 mg/kg/day): 5.04 ± 1.09; cholesterol ([5]; 500 mg/kg/day): 0.32 ± 0.06 g/L; glycemia ([5]; 500 mg/kg/day): 1.41 ± 0.26 g/L; total lipids ([5]; 500 mg/kg/day): 2.77 ± 0.42 g/L; triglycerides ([5]; 500 mg/kg/day): 1.09 ± 0.33 g/L; urea ([5]; 500 mg/kg/day): 0.40 ± 0.05 g/L; alkaline phosphatase [5, 9]: 33.5± 7.8 mU/ml; bilirubin [5, 9]: 4.82 ± 1.85; cholesterol [5, 9]: 0.37 ± 0.07 g/L; glycemia [5, 9]: 1.57 ± 0.15 g/L; total lipids [5, 9]: 2.54 ± 0.35 g/L; triglycerides [5, 9]: 0.74 ± 0.1 g/L; urea [5, 9]: 0.34 ± 0.07 g/L
